These results are taken from patent publication US7094909B2, “HIV protease inhibitors, compositions containing the same, their pharmaceutical uses and materials for their synthesis” (priority 2001, dated 2006).

The structures appear in SMILES notation. Read-outs that look alike come from different tables or passages of the source.

For assay [1], the target named is T1, HIV-1 protease (Q7S mutant form) (Human immunodeficiency virus type 1 group M subtype B, UniProt P04585, Q495S).
T1 construct: made in house
In words: HIV-1 Protease RET assay. It counts as biochemical. The method in brief:
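Ki values fitted with the Morrison tight-binding equation from steady-state RET cleavage (ex 340, em 490 nm) of 5 μM RE(EDANS)SQNYPIVQK(DABCYL)R. Buffer pH 4.8 acetate, 1M NaCl, 5 mM DTT, 1 mg/ml BSA, 10% DMSO; 2 nM Q7S mutant dimer, 37 °C, 12 min.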

Assay [2] deals with HIV-1 (HIV-1 RF, HIV-1 NL4-3) in CEM-SS / MT-2 cells. The assay is described as follows: Cytopathic effect (CPE) inhibition assay (XTT/MTT dye reduction). It counts as cell-based. The gist of the method: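 Readout is XTT reduction (A450, 4 h) after six days of culturing virus-infected (moi 0.025–0.819) or mock-infected CEM-SS/MT-2 cells, 2×10^4 per well, with half-log compound series. Antiviral EC50 and cytotoxic CC50 are relative to uninfected compound-free cells. Therapeutic index is CC50 divided by EC50.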
(In general: Cytopathic effects are the visible damage that an infection or toxin causes in cultured cells.)

The mark [3] stands for this setting: Ave. Ki (nM), RET assay, Q7S enzyme, Morrison tight binding fit.
Setting [4] is: Human immunodeficiency virus 1, NL43, read-out: Ave CPE EC50.
Where [5] appears, read: Human immunodeficiency virus 1, NL43, unit inferred, read-out: EC50.

For the compound `Cc1c(O)cccc1C(=O)N[C@@H](Cc1ccccc1)[C@H](O)C(=O)N1CC(F)(F)C(C)(C)[C@H]1C(=O)NCc1ccco1` [Example C20, (S)-4,4-Difluoro-1-[(2S,3S)-2-hydroxy-3-(3-hydroxy-2-methyl-benzoylamino)-4-phenyl-butyryl]-3,3-dimethyl-pyrrolidine-2-carboxylic acid (furan-2-ylmethyl)-amide], in assay [1] (setting [3]), the Ki – broadly, the dissociation constant of the complex between target and ligand, obtained from inhibition or displacement – was under 0.1 nM. Also, the EC50 (in general, the concentration that produces a half-maximal response) in assay [2] (setting [4]) worked out at 35 nM.
`Cc1c(O)cccc1C(=O)N[C@@H](Cc1ccccc1)[C@H](O)C(=O)N1CSC(C)(C)[C@H]1C(=O)N[C@@H]1CCCc2ncccc21` [Example A43, 3-[2-Hydroxy-3-(3-hydroxy-2-methyl-benzoylamino)-4-phenyl-butyryl]-5,5-dimethyl-thiazolidine-4-carboxylic acid (5,6,7,8-tetrahydro-quinolin-5-yl)-amide] registered a Ki in assay [1] (setting [3]) of 2.6 nM. Also, the EC50 in assay [2] (setting [4]) worked out at 534 nM.
Consider `CCOC(=O)N[C@@H](Cc1ccccc1)[C@H](O)C(=O)N1CSC(C)(C)[C@H]1C(=O)NCc1ccccc1C`, for which the Ki in assay [1] (Ki, unit inferred) worked out at 0.88 nM. The EC50 in assay [2] (setting [5]) stood at 1640 nM.
`Cc1ccccc1CNC(=O)[C@@H]1N(C(=O)[C@@H](O)[C@H](Cc2ccccc2)NC(=O)c2cccc(O)c2C)CSC12CCCC2` displayed a Ki in assay [1] (Ki, unit inferred) of 0.34 nM. The EC50 in assay [2] (setting [5]) was 40 nM.
On to `C#CCNC(=O)[C@H]1N(C(=O)[C@@H](O)[C@H](Cc2ccccc2)NC(=O)COc2c(C)cccc2C)CSC1(C)C` [Example B36, (R)-3-{(2S,3S)-3-[2-(2,6-Dimethyl-phenoxy)-ethanoylamino]-2-hydroxy-4-phenyl-butanoyl}-5,5-dimethyl-thiazolidine-4-carboxylic acid prop-2-ynylamide], for which, in assay [1] (setting [3]), the Ki was under 0.1 nM. Besides, the EC50 in assay [2] (setting [4]) was found to be 519 nM.
Consider `Cc1ccccc1CNC(=O)[C@@H]1CCCCN1C(=O)[C@@H](O)[C@H](Cc1ccccc1)NC(=O)c1cccc(O)c1C`, for which the affinity in assay [1] (Ki, unit inferred), expressed as Ki, was 51.7 nM. Further, the EC50 in assay [2] (setting [5]) amounted to 5870 nM.
Consider `CCCCOC(=O)N[C@@H](Cc1ccccc1)[C@H](O)C(=O)N1CSC(C)(C)C1C(=O)NCc1ccccc1C` (stereo partly shown), for which the Ki in assay [1] (Ki, unit inferred) is 7.6 nM. In assay [2] (setting [5]), the EC50 came to 1760 nM.
As for `Cc1ccccc1CNC(=O)[C@@H]1CC(F)(F)CN1C(=O)[C@@H](O)[C@H](Cc1ccccc1)NC(=O)c1ccc(C)c(O)c1C` [Example C42, (S)-4,4-Difluoro-1-((2S,3S)-2-hydroxy-3-{[1-(3-hydroxy-2,4-dimethyl-phenyl)-methanoyl]-amino}-4-phenyl-butanoyl)-pyrrolidine-2-carboxylic acid 2-methyl-benzylamide], the Ki in assay [1] (setting [3]) turned out to be 4 nM. Further, in assay [2] (setting [4]), the EC50 was 3200 nM.
The corresponding values for `CC1(C)SCN(C(=O)[C@@H](O)[C@H](Cc2ccccc2)NC(=O)c2cccc3c2CCN3)[C@@H]1C(=O)N[C@H]1CCc2ccccc21` [Example B42, 2,3-Dihydro-1H-indole-4carboxylic acid {(1S,2S)-1-benzyl-2-hydroxy-3-[(R)-4-((S)-indan-1-ylcarbamoyl)-5,5-dimethyl-thiazolidin-3-yl]-3-oxo-propyl}-amide] are 0.13 nM and 155 nM.
As for `Cc1ccccc1CNC(=O)C1N(C(=O)[C@@H](O)[C@H](Cc2ccccc2)NC(=O)CSc2nncn2C)CSC1(C)C` (stereo partly shown), affinity in assay [1] (Ki, unit inferred) was put at a Ki of 82 nM. For the same compound, in assay [2] (setting [5]), the EC50 was at least 3200 nM.
The compound `CC1(C)SCN(C(=O)[C@@H](O)[C@H](Cc2ccccc2)NC(=O)c2cccc3c2CCN3)[C@@H]1C(=O)NCc1ccco1` [Example B39, 2,3-Dihydro-1H-indole-4-carboxylic acid ((1S,2S)-1-benzyl-3-{(R)-4-[(furan-2-ylmethyl)-carbamoyl]-5,5-dimethyl-thiazolidin-3-yl}-2-hydroxy-3-oxo-propyl)-amide] displayed a Ki in assay [1] (setting [3]) of 1.9 nM. Further, the EC50 in assay [2] (setting [4]) came to 372 nM.
In turn, `Cc1ccccc1CNC(=O)C1N(C(=O)[C@@H](O)[C@H](CSc2ccccc2)NC(=O)c2cccc(O)c2C)CSC1(C)C` (stereo partly shown) [drawing 934] displayed a Ki in assay [1] (Ki, unit inferred) of at most 0.1 nM. Moreover, the EC50 in assay [2] (unit inferred, read-out: EC50) turned out to be 27 nM.
`C=CCNC(=O)[C@H]1N(C(=O)[C@@H](O)[C@H](Cc2ccccc2)NC(=O)COc2c(C)cccc2C)CSC1(C)C` [Example B23, (R)-3-{(2S,3S)-3-[2-(2,6-Dimethyl-phenoxy)-ethanoylamino]-2-hydroxy-4-phenyl-butanoyl}-5,5-dimethyl-thiazolidine-4-carboxylic acid allylamide] had a Ki in assay [1] (setting [3]) of 0.15 nM. Moreover, in assay [2] (setting [4]), the EC50 is 294 nM.
Take `Cc1ccccc1CNC(=O)[C@H]1N(C(=O)[C@@H](O)[C@H](Cc2ccccc2)NC(=O)COc2c(C)cccc2C)CC(F)(F)C1(C)C` [Example C46, (S)-1-{(2S,3S)-3-[2-(2,6-Dimethyl-phenoxy)-acetylamino]-2-hydroxy-4-phenyl-butyryl}-4,4-difluoro-3,3-dimethyl-pyrrolidine-2-carboxylic acid 2-methyl-benzylamide]: the Ki in assay [1] (setting [3]) was under 0.1 nM. Besides, the EC50 in assay [2] (setting [4]) was found to be 407 nM.
Compound `C#CCNC(=O)[C@H]1N(C(=O)[C@@H](O)[C@H](Cc2ccccc2)NC(=O)c2cccc3[nH]ncc23)CSC1(C)C` [Example B35, 1-H-indazole-4-carboxylic acid [1-benzyl-3-(5,5-dimethyl-4-prop-2-ynylcarbamoyl-thiazolidin-3-yl)-2-hydroxy-3-oxo-propyl]-amide] returned a Ki in assay [1] (setting [3]) of 11 nM. Moreover, the EC50 in assay [2] (setting [4]) is 564 nM.
Consider `C=CCNC(=O)[C@H]1N(C(=O)[C@@H](O)[C@H](Cc2ccccc2)NC(=O)c2cccc3[nH]ncc23)CSC1(C)C` [Example B24, 1-H-indazole-4-carboxylic acid [3-(4-allylcarbamoyl-5,5-dimethyl-thiazolidin-3-yl)-1-benzyl-2-hydroxy-3-oxo-propyl]-amide], for which, in assay [1] (setting [3]), the affinity, expressed as Ki, was 8.3 nM. Also, the EC50 in assay [2] (setting [4]) came out at 512 nM.
For `Cc1c(O)cccc1C(=O)N[C@@H](Cc1ccccc1)[C@H](O)C(=O)N1CSC(C)(C)[C@H]1C(=O)NCc1ccncc1` [Example A8, (R)-3-((2S,3S)-2-Hydroxy-3-{[1l-(3-hydroxy-2-methyl-phenyl)-methanoyl]-amino}-4-phenyl-butanoyl)-5,5-dimethyl-thiazolidine-4-carboxylic acid (pyridin-4-ylmethyl)-amide], in assay [1] (setting [3]), the affinity, expressed as Ki, was 1.4 nM. In addition, the EC50 in assay [2] (setting [4]) stood at 451 nM.
In assay [1] (setting [3]), `Cc1ccccc1CNC(=O)[C@H]1N(C(=O)[C@@H](O)[C@H](Cc2ccccc2)NC(=O)c2cccc3[nH]ccc23)CSC1(C)C` [Example B8, 1H-Indole-4-carboxylic acid {(1S,2S)-1-benzyl-3-[(R)-5,5-dimethyl-4-(2-methyl-benzylcarbamoyl)-thiazolidin-3-yl]-2-hydroxy-3-oxo-propyl}-amide] yielded a Ki of 0.63 nM. Further, the EC50 in assay [2] (setting [4]) was 474 nM.
As for `Cc1ccccc1CCC(=O)[C@H]1N(C(=O)[C@@H](O)[C@H](Cc2ccccc2)NC(=O)O[C@H]2CCOC2)CSC1(C)C`, affinity in assay [1] (Ki, unit inferred) was put at a Ki of 0.76 nM. For the same compound, the EC50 in assay [2] (setting [5]) is 573 nM.
`CC1(C)SCN(C(=O)[C@@H](O)[C@H](Cc2ccccc2)NC(=O)c2cccc3c2CCN3)[C@@H]1C(=O)N[C@@H]1C=CCCC1` [Example B41, 2,3-Dihydro-1H-indole-carboxylic acid {(1S,2S)-1-benzyl-3-[(R)-4-((S)-cyclohex-2-enylcarbamoyl)-5,5-dimethyl-thiazolidin-3-yl]-2-hydroxy-3-oxo-propyl}-amide] registered a Ki in assay [1] (setting [3]) of 0.11 nM. For the same compound, the EC50 in assay [2] (setting [4]) stood at 268 nM.
The corresponding values for `C#CCCC(=O)N[C@@H](Cc1ccccc1)[C@H](O)C(=O)N1CSC(C)(C)[C@H]1C(=O)NCc1ccccc1C` [Example B18, (R)-3-((2S,3S)-2-Hydroxy-3-pent-4-ynoylamino-4-phenyl-butyryl)-5,5-dimethyl-thiazolidine-4-carboxylic acid 2-methyl-benzylamide] are 0.56 nM and 1250 nM.
In assay [1] (Ki, unit inferred), `CC1(C)SCN(C(=O)[C@@H](O)[C@H](Cc2ccccc2)NC(=O)CSc2nc[nH]n2)[C@@H]1C(=O)N[C@@H]1C=CCCC1` showed a Ki of 6.1 nM. Besides, in assay [2] (setting [5]), the EC50 came out at 1280 nM.
Consider `Cc1ccccc1CNC(=O)[C@@H]1C2CCC(C2)N1C(=O)[C@@H](O)[C@H](Cc1ccccc1)NC(=O)c1cccc(O)c1C` (stereo partly shown) [Example C50, 2-(2-Hydroxy-3-{[1-(-hydroxy-2-methyl-phenyl)-methanoyl]-amino}-4-phenyl-butanoyl)-2-aza-bicyclo[2.2.1]-heptane-3-carboxylic acid-2-methyl-benzylamide], for which the Ki in assay [1] (setting [3]) was found to be 7.9 nM. For the same compound, the EC50 in assay [2] (setting [4]) was found to be 997 nM.
With `Cc1ccc(C(=O)N[C@@H](Cc2ccccc2)[C@H](O)C(=O)N2CSC(C)(C)C2C(=O)N[C@@H]2C=CCCC2)c(C)c1O` (stereo partly shown), in assay [1] (Ki, unit inferred), the Ki came out at 0.13 nM. Also, the EC50 in assay [2] (setting [5]) is 1160 nM.
`Cc1c(O)cccc1C(=O)N[C@@H](Cc1ccccc1)[C@H](O)C(=O)N1CSC(C)(C)[C@H]1C(=O)NC1CCCC1` [Example A27, (R)-3-((2S,3S)-2-Hydroxy-3-{[1-(3-hydroxy-2-methyl-phenyl)-methanoyl]-amino}-4-phenyl-butanoyl)-5,5-dimethyl-thiazolidine-4-carboxylic acid cyclopentylamide] had an inhibition constant Ki in assay [1] (setting [3]) of under 0.1 nM. In addition, the EC50 in assay [2] (setting [4]) amounted to 110 nM.
`COc1ccc(CNC(=O)N[C@@H](Cc2ccccc2)[C@H](O)C(=O)N2CSC(C)(C)[C@H]2C(=O)NCc2ccccc2C)cc1` [Example B60, 3-{(S)-2-Hydroxy-3-[3-(4-methoxy-benzyl)-ureido]-4phenyl-butyryl}-5,5-dimethyl-thiazolidine-4-carboxylic acid 2-methyl-benzylamide] displayed a Ki in assay [1] (setting [3]) of 1.1 nM. Further, in assay [2] (setting [4]), the EC50 is over 3200 nM.
